What was measured:
[1] = tested on: tyrosine and serine/threonine kinases; test: Biochemical kinase assays
[2] = tested on: HS578T, BT549 and MDA-MB-231 cells; test: Apoptosis by Annexin V staining, single agent; format: cell-based; settings: 500 nM, 24 and 48 hours
Method: (§1) Cell cycle analyses and evaluation of apoptosis were performed by flow cytometry using propidium iodide and Annexin V, respectively.
For apoptosis analyses, HS578T, BT549 and MDA-MB-231 cell monolayers were incubated in trypsin-EDTA, washed twice with cold PBS, and then resuspended in binding buffer (10 mM HEPES free acid [pH 7.4], 140 mM NaCl, 2.5 mM CaCl2) at a concentration of 1×10^6 cells per mL. A total of 1×10^5 cells were incubated for 15 minutes in the dark with Annexin V-APC (BD Biosciences) and propidium iodide (PI) staining solution (5 μL Annexin V-[…], 10 μL of PI [[…] final concentration], 400 μL binding buffer).

[3] = tested on: PI3K/mTOR/AKT and JAK/STAT pathway; test: Western Blot of PI3K/mTOR/AKT and JAK/STAT pathway components; format: cell-based; settings: 500 nM, up to 24 h
Method: Western-blot and phospho-array kits were used for evaluation of signaling intermediates.
HS578T and BT549 cell lines were grown in DMEM 10% of FBS and at 70% confluence were treated with Formula (III) at 500 nM for 6, 12 and 24 hours. Cells were washed with phosphate-buffered saline (PBS) (137 mM NaCl, 2.7 mM KCl, 8 mM Na2HPO4, 1.5 mM KH2PO4) and lysed in ice-cold lysis buffer (20 mM Tris-HCl [pH 7.0], 140 mM NaCl, 50 mM EDTA, 10% glycerol, 1% Nonidet P-40, 1 μM pepstatin, 1 μg/mL aprotinin, 1 μg/mL leupeptin, 1 mM phenylmethyl sulfonyl fluoride, 1 mM sodium orthovanadate). Lysates were centrifuged at 10000 g at 4° C. for 10 minutes. The protein level in the supernatants was quantified using BCA protein assay (Sigma Aldrich). A total of 50 μg of protein of each sample was used for analysis. Samples were then boiled in electrophoresis sample buffer and placed on 6%-15% sodium dodecyl sulfate-polyacrylamide gel electrophoresis (SDS-PAGE) gels, depending on the molecular weight of the proteins to be analyzed. Briefly, after electrophoresis, proteins in gels were transferred to polyvinylidene difluoride membranes (Millipore Corporation). Membranes were blocked in Tris-buffered saline with Tween (TBST) (100 mM Tris [pH 7.5], 150 mM NaCl, 0.05% Tween 20) containing 1% of bovine serum albumin for 1 h and then incubated overnight with the corresponding antibody. […]

MDA-MB-231 cells = test: Cell cycle analysis by flow cytometry (propidium iodide); format: cell-based; settings: 500 nM, 24 h
Method: as §1
(§2) For cell cycle analyses, HS578T, BT549 and MDA-MB-231 cells were cultured in 100-mm culture dishes, grown to 70% confluence, and treated with 500 nM Formula (III) for 24 h. Cell monolayers were then incubated in trypsin-EDTA and resuspended in 1 mL of PBS. After three washes with PBS, the cell pellets were resuspended in ice cold 70% ethanol for 2 min and centrifuged 5 min at 1800 rpm. The cell pellets were treated with 1 mL of propidium iodide (PI) staining solution (PBS containing 50 μg/mL of PI, 0.5% Tween 20, 0.1 μg/mL RNase A) (BD Biosciences) and incubated in the dark for 1 h. DNA content and cell cycle analyses were performed by using a FACS canto II flow cytometer and the CellQuest software (BD Biosciences).

BT549 cells = test: as above; format: cell-based; settings: 500 nM, 24 h
Method: as §1, §2

HS578T cells = test: as above; format: cell-based; settings: 500 nM, 24 h
Method: as §1, §2

[4] = tested on: HS578T, BT549 and MDA-MB-231 cells; test: Three-dimensional growth in matrigel (spherical structures); format: cell-based
Method: For three-dimensional cell culture, the bottom of 24 multi-dish plates was covered with a thin ice-cold 4% Matrigel (BD Biosciences) layer and incubated at 37° C. for 20 minutes to allow the Matrigel to solidify. Matrigel was added to conventional DMEM. The desired cells were tripsinized (0.25% trypsin-EDTA solution (2.5 g/L of trypsin, 0.38 g/L of EDTA) collected and resuspended to a final concentration of 12.500 cls/mL in 2% Matrigel. The cell suspension was added over the solidified Matrigel layer and incubated at 37° C. The medium was changed after 4 days and the cell culture was daily visualized under a microscope for phenotype monitoring. The cells were cultured for 10 days.

[5] = tested on: HS578T, BT549, MDA-MB-231 and HCC3153 cells; test: MTT metabolization in a panel of TNBC cell lines; format: cell-based
Method: Hs578T, BT549 and MDA-MB-231 were grown in DMEM and HCC3153 in RPMI; both mediums were purchased from Sigma Aldrich, supplemented with 10% FBS, 100 mU/mL penicillin, 100 μg/mL streptomycin and 2 mM L-glutamine, in a 5% CO2 atmosphere at 37° C. These triple negative breast cancer cell lines were obtained from the American Type Culture Collection Cell Biology Collection (ATCC) (Manassas, Va.). The medium was changed every 2 days.
Cell proliferation and growth experiments were carried out using 3-(4,5-dimethylthiazol-2-yl)-2,5-diphenyltetrazolium bromide (MTT) uptake assays, where MTT is reduced to purple formazan by the mitochondria of living cells. Increase in cell number is detected by augmented MTT metabolization, and decrease in cell number is reflected by a decrease. HS578T, BT549, MDA-MB-231 and HCC3153 cells were plated at a density of 1×10^4 cells per well in 24-well plates and cultured overnight in DMEM supplemented with 10% FBS. The cells were treated with the drug at different concentrations to plot the dose-response curves in all cancer cell lines using in the study. […] After treatment, each well was replaced with 250 μL of fresh medium containing MTT ([…]) and incubated for 1 hour. The medium was then removed and 500 μL of dimethyl sulfoxide was added to each well. The plate was agitated in the dark for 5 minutes to dissolve the MTT-formazan crystals. The absorbance of the samples was recorded at 562 nm in a multi-well plate reader (BMG labtech). Results were plotted as the mean values of quadruplicates from a representative experiment that was repeated at least two independent times.

C[C@]12O[C@H](C[C@@H](O)[C@H]1O)n1c3ccccc3c3c4c(c5c6ccccc6n2c5c31)C(=O)NC4=O [Formula (III)]
concentration range of kinase affinity and inhibition [1]: nanomolar and subnanomolar range
apoptosis (Annexin V staining) [2]: an increase at 48 hours, more evident in HS578T
phosphorylation of AKT, p70 S6 and STAT3 [3]: inhibits components of the PI3K/mTOR/AKT and JAK/STAT pathway
increase of cells in G2/M phase (MDA-MB-231 cells): 18%
increase of cells in G2/M phase (BT549 cells): 22%
increase of cells in G2/M phase (HS578T cells): 15%
diameter of spherical structures in matrigel [4]: strongly decreased the diameter of these spheres
MTT metabolization ([5]; 0 to 2 μM after 72 h, 500 nM over 6 days): inhibited the MTT metabolization in a dose and time dependent manner
growth inhibition ([5]; doses in the submicromolar (nanomolar) range, all cell lines studied): more than 80%
IC50 ([5]; read-out: IC50 dose (MTT metabolization)): 500 nM
